Experimental data from patent US20240400606A1, “SMALL MOLECULE ACTIVATORS OF THE IMMUNE SYSTEM” (THE BOARD OF TRUSTEES OF THE UNIVERSITY OF ILLINOIS, priority 2021, published 2024).
Entries after “also recorded” stand apart in the source; their conditions may differ.

Experiments:
[1] = Pharmacokinetic mouse studies; type: in vivo, C57BL/6 mice; settings: for concentration in the serum: mice
Procedure: Pharmacokinetic Analysis. […] Whole blood was collected, centrifuged, and EDTA serum separated for quantification by […] methods (UIUC Metabolomics Center, Urbana, IL).
Pharmacokinetic mouse studies: Compound (3) was formulated in 50% DMSO, 50% Peg400 at 40 mg/mL (for 200 mg/kg injection), Compound was injected intraperitoneally into female C57BL/6 mice (3 per time point). Blood from the mice were harvested at each time point. Serum was separated and concentration in the serum was quantified by LC-MS/MS.

IMPAD1 = IMPAD1 (Homo sapiens (Human), UniProt Q9NX62); assay: IMPAD1 in vitro activity assay; type: biochemical
Procedure: IMPAD1 Assay. Working stock solutions of IMPAD1 (0.1 mg/mL in 1× activity assay buffer), adenosine 3′,5′-diphosphate (PAP; dissolved first in DMSO to make stock solution then diluted to 200 μM in 1× assay buffer), and compound of interest in DMSO were prepared. Two technical replicates were assayed for each sample. Reaction mixes were prepared by mixing 6 μL IMPAD1 stock solution, 2.4 μL compound of interest stock or DMSO, 21.6 μL 1× assay buffer to make 30 μL reaction mix. Amount of reaction mix was scaled accordingly to number of samples assayed. 15 μL of reaction mix was dispensed to each well (384-well plate). 15 μL 200 μM PAP stock solution was added to each well. The reaction was incubated at 37° C. for 45 minutes, then quenched by addition of 15 μL of malachite green solution A, followed by addition of 15 μL of malachite green solution B. The plate was left at room temperature for 20 minutes for color stabilization, then absorbance was read at 620 nm. Phosphate standard curve generation was identical to that described under “Optimized Coupled Chromogenic SULT2B1b Activity Assay”, 384-well format. […]
Percent inhibition was calculated as: 100−[100×[(Phosphate produced per wellaverage, compound of interest−Phosphate produced per wellaverage, PAP)/(Phosphate produced per wellaverage, IMPAD1−Phosphate produced per wellaverage, PAP)]].

[2] = target: human carbonic anhydrase II (hCAII) (Homo sapiens (Human), UniProt P00918); assay: Human carbonic anhydrase II assay; type: biochemical; settings: concentrations up to 200 μM; listed as IB:10:D
Procedure: Human Carbonic Anhydrase II Assay. Stock solutions of compound of interest (in DMSO), acetazolamide (10 μM in DMSO), hCAII solution (65 μL of 33 μM stock to 1.935 mL hCAII assay buffer to make 1 μM hCAII solution), and 4-nitrophenylacetate (4-NPA; 60 μL of 100 mM DMSO stock to 3 mL hCAII assay buffer to make 2 mM 4-NPA solution). To the wells of a 384-well clear bottom plate were added 1 μL compound of interest or 10 μM acetazolamide. 20 μL of hCAII solution was added to all wells except no enzyme control well, in which case 20 μL hCAII assay buffer was added instead. Plates were incubated for 11 minutes at room temperature before addition of 4-NPA solution to all wells. Absorbance at 348 nm was read every 10 seconds of 11 minute total run time. Three technical replicates were assessed per plate. Controls: hCAII+4-NPA (DMSO added in place of compound of interest, DMSO control), 4-NPA background (no enzyme, DMSO added in place of compound of interest, 4-NPA control), hCAII+4-NPA+acetazolamide (acetazolamide added in place of compound of interest, known hCAII inhibitor).
Percent inhibition calculated as: 100−[100×[(AbSaverage, compound of interest−AbSaverage, 4-NPA)/(AbSaverage, DMSO−AbSaverage, 4-NPA)]].

[3] = female, mouse, 200 mg/kg, C57BL/6 mice, single IP dose, serum

IMPAD1, sequence (Q9NX62 whole entry): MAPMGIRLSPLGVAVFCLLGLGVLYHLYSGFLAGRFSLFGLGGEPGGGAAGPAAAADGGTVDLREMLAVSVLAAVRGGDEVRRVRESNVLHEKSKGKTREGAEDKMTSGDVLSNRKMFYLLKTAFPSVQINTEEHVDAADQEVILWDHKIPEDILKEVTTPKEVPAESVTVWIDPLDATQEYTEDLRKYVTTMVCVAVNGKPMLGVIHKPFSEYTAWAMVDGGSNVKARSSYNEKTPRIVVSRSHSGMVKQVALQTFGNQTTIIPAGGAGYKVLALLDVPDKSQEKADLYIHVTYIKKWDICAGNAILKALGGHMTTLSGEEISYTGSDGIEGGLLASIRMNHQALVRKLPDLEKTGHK

`C[C@]12CCC(=O)N(Cc3ccc(Br)cc3)C1=CC[C@@H]1[C@@H]2C(=O)C[C@]2(C)C(=O)CC[C@@H]12` [Compound 3, (4aR,4bS,6aS,9aS,9bS)-1-(4-bromobenzyl)-4a,6a-dimethyl-3,4,4a,6,6a,8,9,9a,9b,10-decahydro-1H-indeno[5,4-f]quinoline-2,5,7(4bH)-trione] gave a CL ([1]; C57BL/6 mice, single IP dose, serum) of 90.56 mL/min/kg, an AUC [1, 3] of 36800 ng·h/mL and a Cmax [1, 3] of 19800 ng/mL. The MRT [1, 3] was 1.86 h, the half-life [1, 3] was 77.2 min and the “concentration in the serum” value ([1]; 200 mg/kg intraperitoneally) was ~50 µM. For the same molecule, the “concentration in the serum” value ([1]; stated as 150 mg/kg IP) was ~50 µM.

In the case of `C[C@]12CCC(=O)N(Cc3ccc(Cl)cc3)C1=CC[C@@H]1[C@@H]2C(=O)C[C@]2(C)C(=O)CC[C@@H]12` [Compound 1, (4aR,4bS,6aS,9aS,9bS)-1-(4-chlorobenzyl)-4a,6a-dimethyl-3,4,4a,6,6a,8,9,9a,9b,10-decahydro-1H-indeno[5,4-f]quinoline-2,5,7(4bH)-trione], the “inhibition of IMPAD1” value (IMPAD1) is reported as “does not inhibit” and the “inhibition of hCAII” value [2] is reported as “does not inhibit; also recorded: No inhibition”.
